Like-named read-outs stand apart in the source and are kept apart here.
Test system: HBV rcDNA in HepDE19 cells
Test: HepDE19 assay with bDNA quantitation of HBV rcDNA
Format: cell-based, hepatitis B virus (HBV)
Conditions: inhibition of rcDNA formation in HepDE19 cells (HepG2 derived), Tet-free medium, 7 day incubation, Quantigene 2.0 bDNA readout, top concentration 25 μM, read-out: DE-19bDNA EC50
Procedure, shortened: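 Cytotoxicity run on replicate plates (5,000 cells/well, 4 days, ATP luminescence, CC50), while antiviral plates (50,000 cells/well) received compound for 7 days after tetracycline withdrawal to induce HBV replication. Top dose 25 μM, 8 points, 0.5% DMSO; rcDNA by branched-DNA assay, % inhibition fitted (4-parameter) for EC50 and EC90.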

[1] = Hepatitis B virus, HepDE19, 168 h

CC(=O)N1Cc2[nH]c(=O)c3cc(F)c(F)cc3c2C(N(C)C(=O)Nc2ccc(F)c(C#N)c2)C1 (single isomer, unassigned) [Compound 177, 1-(3-Acetyl-8,9-difluoro-6-oxo-1,2,3,4,5,6-hexahydrobenzo[c][1,7]naphthyridin-1-yl)-3-(3-cyano-4-fluorophenyl)-1-methylurea]
EC50: ≥ 25000 nM

CC(=O)N1Cc2[nH]c(=O)c3cc(F)c(F)cc3c2C(N(C)C(=O)Nc2ccc(F)c(C#N)c2)C1 (single isomer, unassigned) [Compound 178, 1-(3-Acetyl-8,9-difluoro-6-oxo-1,2,3,4,5,6-hexahydrobenzo[c][1,7]naphthyridin-1-yl)-3-(3-cyano-4-fluorophenyl)-1-methylurea]
EC50: 11000 nM

CN(C(=O)Nc1ccc(F)c(Cl)c1)C1CN(CCO)Cc2[nH]c(=O)c3cc(F)c(F)cc3c21 (single isomer, unassigned) [Compound 179, 3-(3-Chloro-4-fluorophenyl)-1-(8,9-difluoro-3-(2-hydroxyethyl)-6-oxo-1,2,3,4,5,6-hexahydrobenzo[c][1,7]naphthyridin-1-yl)-1-methylurea]
EC50: 7300 nM

CN(C(=O)Nc1ccc(F)c(Cl)c1)C1CN(CCO)Cc2[nH]c(=O)c3cc(F)c(F)cc3c21 (single isomer, unassigned) [Compound 180, 3-(3-Chloro-4-fluorophenyl)-1-(8,9-difluoro-3-(2-hydroxyethyl)-6-oxo-1,2,3,4,5,6-hexahydrobenzo[c][1,7]naphthyridin-1-yl)-1-methylurea]
EC50: 1400 nM

CN(C(=O)Nc1ccc(F)c(C#N)c1)C1CN(CCO)Cc2[nH]c(=O)c3cc(F)c(F)cc3c21 (single isomer, unassigned) [Compound 181, 3-(3-Cyano-4-fluorophenyl)-1-(8,9-difluoro-3-(2-hydroxyethyl)-6-oxo-1,2,3,4,5,6-hexahydrobenzo[c][1,7]naphthyridin-1-yl)-1-methylurea]
EC50: ≥ 25000 nM

CN(C(=O)Nc1ccc(F)c(C#N)c1)C1CN(CCO)Cc2[nH]c(=O)c3cc(F)c(F)cc3c21 (single isomer, unassigned) [Compound 182, 3-(3-Cyano-4-fluorophenyl)-1-(8,9-difluoro-3-(2-hydroxyethyl)-6-oxo-1,2,3,4,5,6-hexahydrobenzo[c][1,7]naphthyridin-1-yl)-1-methylurea]
EC50: 4900 nM

CN(C(=O)Nc1ccc(F)c(Cl)c1)C1CSCc2[nH]c(=O)c3cc(F)ccc3c21 (single isomer, unassigned) [Compound 183, 3-(3-Chloro-4-fluorophenyl)-1-(8-fluoro-6-oxo-1,4,5,6-tetrahydro-2H-thiopyrano[3,4-c]isoquinolin-1-yl)-1-methylurea]
EC50: 1100 nM

CN(C(=O)Nc1ccc(F)c(Cl)c1)C1CSCc2[nH]c(=O)c3cc(F)ccc3c21 (single isomer, unassigned) [Compound 184, 3-(3-Chloro-4-fluorophenyl)-1-(8-fluoro-6-oxo-1,4,5,6-tetrahydro-2H-thiopyrano[3,4-c]isoquinoIin-1-yl)-1-methylurea]
EC50: 30 nM

CN(C(=O)Nc1ccc(F)c(C#N)c1)C1CSCc2[nH]c(=O)c3cc(F)ccc3c21 (single isomer, unassigned) [Compound 185, 3-(3-Cyano-4-fluorophenyl)-1-(8-fluoro-6-oxo-1,4,5,6-tetrahydro-2H-thiopyrano[3,4-c]isoquinolin-1-yl)-1-methylurea]
EC50: 3300 nM

CN(C(=O)Nc1ccc(F)c(C#N)c1)C1CSCc2[nH]c(=O)c3cc(F)ccc3c21 (single isomer, unassigned) [Compound 186, 3-(3-Cyano-4-fluorophenyl)-1-(8-fluoro-6-oxo-1,4,5,6-tetrahydro-2H-thiopyrano[3,4-c]isoquinolin-1-yl)-1-methylurea]
EC50: 60 nM

CN(C(=O)Nc1ccc(F)c(Cl)c1)C1CSCc2[nH]c(=O)c3cc(F)c(F)cc3c21 (single isomer, unassigned) [Compound 187, 3-(3-Chloro-4-fluorophenyl)-1-(8,9-difluoro-6-oxo-1,4,5,6-tetrahydro-2H-thiopyrano[3,4-c]isoquinolin-1-yl)-1-methylurea]
EC50: 900 nM

CN(C(=O)Nc1ccc(F)c(Cl)c1)C1CSCc2[nH]c(=O)c3cc(F)c(F)cc3c21 (single isomer, unassigned) [Compound 188, 3-(3-Chloro-4-fluorophenyl)-1-(8,9-difluoro-6-oxo-1,4,5,6-tetrahydro-2H-thiopyrano[3,4-c]isoquinolin-1-yl)-1-methylurea]
EC50: 20 nM

CN(C(=O)Nc1ccc(F)c(C#N)c1)C1CSCc2[nH]c(=O)c3cc(F)c(F)cc3c21 (single isomer, unassigned) [Compound 189, 3-(3-Cyano-4-fluorophenyl)-1-(8,9-difluoro-6-oxo-1,4,5,6-tetrahydro-2H-thiopyrano[3,4-c]isoquinolin-1-yl)-1-methylurea]
EC50: 880 nM

CN(C(=O)Nc1ccc(F)c(C#N)c1)C1CSCc2[nH]c(=O)c3cc(F)c(F)cc3c21 (single isomer, unassigned) [Compound 190, 3-(3-Cyano-4-fluorophenyl)-1-(8,9-difluoro-6-oxo-1,4,5,6-tetrahydro-2H-thiopyrano[3,4-c]isoquinolin-1-yl)-1-methylurea]
EC50: 20 nM

CN(C(=O)Nc1ccc(F)c(F)c1)C1CNCc2[nH]c(=O)c3cc(F)c(F)cc3c21 (single isomer, unassigned) [Compound 191, 1-(8,9-Difluoro-6-oxo-1,2,3,4,5,6-hexahydrobenzo[c][1,7]naphthyridin-1-yl)-3-(3,4-difluorophenyl)-1-methylurea]
EC50: 3000 nM

CN(C(=O)Nc1ccc(F)c(F)c1)C1CNCc2[nH]c(=O)c3cc(F)c(F)cc3c21 (single isomer, unassigned) [Compound 192, 1-(8,9-Difluoro-6-oxo-1,2,3,4,5,6-hexahydrobenzo[c][1,7]naphthyridin-1-yl)-3-(3,4-difluorophenyl)-1-methylurea]
EC50: 40 nM

CN(C(=O)Nc1ccc(F)c(Cl)c1)C1C[S+]([O-])Cc2[nH]c(=O)c3cc(F)ccc3c21 (single isomer, unassigned) [Compound 194, 3-(3-Chloro-4-fluorophenyl)-1-(8-fluoro-3-oxido-6-oxo-1,4,5,6-tetrahydro-2H-thiopyrano[3,4-c]isoquinolin-1-yl)-1-methylurea]
EC50: ≥ 25000 nM

CN(C(=O)Nc1ccc(F)c(Cl)c1)C1C[S+]([O-])Cc2[nH]c(=O)c3cc(F)ccc3c21 (single isomer, unassigned) [Compound 195]
EC50: 900 nM

CN(C(=O)Nc1ccc(F)c(Cl)c1)C1C[S+]([O-])Cc2[nH]c(=O)c3cc(F)ccc3c21 (single isomer, unassigned) [Compound 196, 3-(3-Chloro-4-fluorophenyl)-1-(8-fluoro-3-oxido-6-oxo-1,4,5,6-tetrahydro-2H-thiopyrano[3,4-c]isoquinolin-1-yl)-1-methylurea]
EC50: 22000 nM

CN(C(=O)Nc1ccc(F)c(Cl)c1)C1CS(=O)(=O)Cc2[nH]c(=O)c3cc(F)ccc3c21 (single isomer, unassigned) [Compound 197, 3-(3-Chloro-4-fluorophenyl)-1-(8-fluoro-3,3-dioxido-6-oxo-1,4,5,6-tetrahydro-2H-thiopyrano[3,4-c]isoquinolin-1-yl)-1-methylurea]
EC50 [1]: 2300 nM

CN(C(=O)Nc1ccc(F)c(Cl)c1)C1CS(=O)(=O)Cc2[nH]c(=O)c3cc(F)ccc3c21 (single isomer, unassigned) [Compound 198, 3-(3-Chloro-4-fluorophenyl)-1-(8-fluoro-3,3-dioxido-6-oxo-1,4,5,6-tetrahydro-2H-thiopyrano[3,4-c]isoquinolin-1-yl)-1-methylurea]
EC50: 3700 nM

CN(C(=O)Nc1ccc(F)c(C#N)c1)C1C[S+]([O-])Cc2[nH]c(=O)c3cc(F)ccc3c21 (single isomer, unassigned) [Compound 199, 3-(3-Cyano-4-fluorophenyl)-1-(8-fluoro-3-oxido-6-oxo-1,4,5,6-tetrahydro-2H-thiopyrano[3,4-c]isoquinolin-1-yl)-1-methylurea]
EC50: 20000 nM

CN(C(=O)Nc1ccc(F)c(C#N)c1)C1C[S+]([O-])Cc2[nH]c(=O)c3cc(F)ccc3c21 (single isomer, unassigned) [Compound 200, 3-(3-Cyano-4-fluorophenyl)-1-(8-fluoro-3-oxido-6-oxo-1,4,5,6-tetrahydro-2H-thiopyrano[3,4-c]isoquinolin-1-yl)-1-methylurea]
EC50: ≥ 25000 nM

CN(C(=O)Nc1ccc(F)c(C#N)c1)C1C[S+]([O-])Cc2[nH]c(=O)c3cc(F)ccc3c21 (single isomer, unassigned) [Compound 201, 3-(3-Cyano-4-fluorophenyl)-1-(8-fluoro-3-oxido-6-oxo-1,4,5,6-tetrahydro-2H-thiopyrano[3,4-c]isoquinolin-1-yl)-1-methylurea]
EC50: 3600 nM

CN(C(=O)Nc1ccc(F)c(C#N)c1)C1C[S+]([O-])Cc2[nH]c(=O)c3cc(F)ccc3c21 (single isomer, unassigned) [Compound 202, 3-(3-Cyano-4-fluorophenyl)-1-(8-fluoro-3-oxido-6-oxo-1,4,5,6-tetrahydro-2H-thiopyrano[3,4-c]isoquinolin-1-yl)-1-methylurea]
EC50: ≥ 25000 nM

CN(C(=O)Nc1ccc(F)c(Cl)c1)C1CS(=O)(=O)Cc2[nH]c(=O)c3cc(F)c(F)cc3c21 (single isomer, unassigned) [Compound 203, 3-(3-Chloro-4-fluorophenyl)-1-(8,9-difluoro-3,3-dioxido-6-oxo-1,4,5,6-tetrahydro-2H-thiopyrano[3,4-c]isoquinolin-1-yl)-1-methylurea]
EC50 [1]: 1400 nM
